The values that follow come from article PMC7956620 (Molecules, 2021).

Changes are numbered by the printed parent chain.

Type in all cases: cell-based
Conditions in all cases: 100 µM chanoclavine, read-out: Inhibition Percentage (%)

The target in experiment [1] is T1, 5-HT3A receptor R92A mutant (Homo sapiens, UniProt P46098, R87A).
T1 construct: host or cells: Xenopus laevis oocytes injected with in vitro transcribed mRNA
T1 sequence (P46098 24-478 R87A): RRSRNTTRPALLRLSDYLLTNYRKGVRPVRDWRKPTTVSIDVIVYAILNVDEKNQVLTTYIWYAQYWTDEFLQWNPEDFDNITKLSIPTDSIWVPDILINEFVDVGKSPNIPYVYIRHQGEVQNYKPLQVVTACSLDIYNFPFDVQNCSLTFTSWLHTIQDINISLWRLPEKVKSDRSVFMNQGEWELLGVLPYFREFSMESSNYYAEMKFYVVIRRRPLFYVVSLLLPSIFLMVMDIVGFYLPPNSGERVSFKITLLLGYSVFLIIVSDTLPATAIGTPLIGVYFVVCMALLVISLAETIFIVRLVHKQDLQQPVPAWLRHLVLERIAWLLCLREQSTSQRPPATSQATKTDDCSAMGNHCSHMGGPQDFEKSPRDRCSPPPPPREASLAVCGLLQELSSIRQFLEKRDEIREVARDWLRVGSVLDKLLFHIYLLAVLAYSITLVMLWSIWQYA
Put plainly: two-electrode voltage clamp, R92A mutant receptor in Xenopus oocytes. Here is the method: (§1) The site-directed mutation of one or two amino acids was performed using sense and antisense primers and Pfu polymerase (QuickChange Site-Directed Mutagenesis Kit; Agilent, Santa Clara, CA, USA) and amplified by polymerase chain reaction (PCR) to increase the target domain. After removing the existing methylated cDNA using Dpn Ⅰ, the PCR products were transformed into Escherichia coli strain DH5α. The cDNA of the 5-HT3A receptor was linearized by Xho Ⅰ at the end of the multi-cloning site, followed by transcription using T7 polymerase and a transcription kit (mMESSAGE mMACHINE T7 Transcription Kit; Thermo Fisher Scientific, Waltham, MA, USA). […]
(§2) To isolate oocytes, female Xenopus laevis were put into a container filled with ice and left for about one hour. […] When the Xenopus oocytes were ready for injection, 50 ng of mRNA was injected with a nanoliter injector (Drummond Scientific, Vernon Hills, IL, USA). […]
(§3) The oocytes in which mRNA was expressed during the incubation period allowed for the estimation of channel or receptor properties for observing drug and ligand potential interactions using a two-electrode voltage clamp (OC-725C; Warner Instruments, Hamden, CT, USA) and Digidata (1322A; Molecular Devices, Sunnyvale, CA, USA). […] The voltage and current electrodes were filled with 3 M KCl (0.3–0.7 MΩ) and analyzed at a −80 mV holding potential. […]
For orientation: In two-electrode clamp one electrode senses voltage and the other passes current.

Experiment [2] has as its target T2, 5-HT3A receptor V133A mutant (Homo sapiens, UniProt P46098, V128A).
T2 construct: host or cells: Xenopus laevis oocytes injected with in vitro transcribed mRNA
T2 sequence (P46098 24-478 V128A): T1 sequence (P46098 24-478 R87A) with A64R, V105A
Put plainly: two-electrode voltage clamp, V133A mutant receptor in Xenopus oocytes. On the procedure:
as §1, §2, §3

The target in experiment [3] is T3, 5-HT3A receptor S136A mutant (Homo sapiens, UniProt P46098, S131A).
T3 construct: host or cells: Xenopus laevis oocytes injected with in vitro transcribed mRNA
T3 sequence (P46098 24-478 S131A): T1 sequence (P46098 24-478 R87A) with A64R, S108A
As to the kind of experiment: two-electrode voltage clamp, S136A mutant receptor in Xenopus oocytes. Here is the method: as §1, §2, §3

By inhibition is commonly meant the relative decrease from the control value, in per cent.

On to `CN[C@@H]1Cc2c[nH]c3cccc(c23)[C@H]1/C=C(\C)CO` [chanoclavine], for which the figures for the inhibition at 100 µM in experiment [1], in experiment [2] and in experiment [3] were 95.45 ± 0.3%, 67.2 ± 9.9% and 68.4 ± 6.1%, respectively.
